The experiment has as its system ZIKV MR766. The experiment is described as follows: Elimination of ZIKV from infected hNPCs (drug applied 2 h post infection, 3 days drug, 3 days drug-free). Type of experiment: cell-based, Zika virus. To be noted: for ZIKV infection of hNPCs at day 6: 3 days treatment followed by 3 days culture without drug; for ZIKV infection rate of hNPCs at day 3: day 3 of treatment. On the procedure: (A) Scheme to evaluate the elimination of ZIKV. At day 0, hNPCs were infected with ZIKV for 2 h. After removal of ZIKV infection medium, hNPCs were treated with drug candidates. At day 3, the culture medium was changed to fresh medium without compounds. The cells were maintained in drug-free culture until day 6 and used for immunohistochemistry and qRT-PCR. (B and C) Inhibitory curve and IC50 of HH calculated based on the infection rate (B) and normalized cell viability (C) (n=6). (D and E) Immunocytochemistry analysis (D) and the quantification of infection rate, cell apoptosis rate, and total cell number (E) of hNPCs on day 3 and day 6. Cells was fixed and stained with cleaved Caspase-3 (CAS3), ZIKV E and DAPI. Scale bars, 100 μm. (F) qRT-PCR analysis to monitor the total ZIKV vRNA in the supernatant of hNPC cultures on day 6. Scale bars, 200 μm. (n=3). (G) Vero cell reinfection assay to monitor the infective ZIKV vRNA in the supernatant of hNPC cultures at day 6 after ZIKV infection. Scale bars, 200 μm. (n=3). (H) Quantification of ZIKV infectious particles produced by ZIKV-infected hNPCs at day 6 by the Vero cell reinfection assay. (I) hNPCs with or without ZIKV infection treated with HH maintain hNPC marker expression and differentiation capacity. hNPCs with or without ZIKV MR766 infection were treated with 25 μM HH or DMSO for 3 days and then stained for SOX2, NESTIN and with DAPI. hNPCs with or without ZIKV infection and treated with HH or DMSO for 3 days were differentiated to cortical neurons. The cortical neurons were then fixed and stained for MAP2, TUJ1 and with DAPI. Scale bars, 100 μm. (n=3). (J) ZIKV (MR766 strain) dynamics in hNPCs. qRT-PCR analysis to quantify the total and replicating (−) strand vRNAs in the hNPCs at different time points post infection. […] (K) qRT-PCR analysis of hNPCs, on which 25 μM HH or DMSO were added at 24 h, 36 h and 48 h post-ZIKV (MR766 strain) infection and maintained for additional 3 days. p values were calculated by unpaired two-tailed Student's t-test. *p<0.05, **p<0.01 and ***p<0.001, if not mentioned specifically.
HH eliminates virus from ZIKV infected hNPCs. To determine whether the drug candidates are capable of eliminating ZIKV in previously infected hNPCs, HH or AQ was applied 2 h post ZIKV infection (FIG. 2A).
ZIKV-infected hNPCs were treated with HH or AQ for 3 days, followed by 3 days culture in drug-free medium. Immunocytochemical analysis of ZIKV E, cleaved-caspase-3 (CAS3) and DAPI were performed at day 0 (just before ZIKV infection), day 3, and day 6 to measure the ZIKV infection rate, cell death rate and total cell numbers, respectively. […] In addition, neither ZIKV vRNA, as indicated by qRT-PCR (FIG. 2F), or production of infectious ZIKV, as indicated by a Vero cell re-infection assay, was detected in day 6 supernatant of HH-treated conditions (FIGS. 2G and 2H). […] In contrast, hNPCs without HH treatment underwent significant cell death after 3 days of ZIKV infection, and there were no cells detected after cortical neuron differentiation (data not shown).
Generation of inhibitory curves. hNPCs were plated on 96-well plates with Accutase digestion at 8.5×10^4/cm^2 density and incubated overnight. For generating inhibitory curves of compound for inhibiting ZIKV infection, cells were first treated with DMSO or different doses of hit compounds for 1 h before ZIKV infection. The cells were then infected with ZIKV MR766 at a MOI=0.125. After 2 h of infection, the virus-containing medium was replaced by fresh virus-free medium and compounds were added again to the same wells. For generating inhibitory curves of compound for eliminating ZIKV, compounds were instead added after ZIKV infection. After 3 days incubation, the cells were fixed and stained for ZIKV envelope protein (ZIKV E) and DAPI was used to stain cell nuclei. Plates were analyzed with the ImageXpress^MICRO Automated High-Content Analysis System. IC50 was calculated using MasterPlex Reader Fit 2010.

Setting [1] is: compound applied 2 h post ZIKV infection.

Where a name gives a salt, the structure may show the parent alone.

With `CCN(CC)Cc1cc(Nc2ccnc3cc(Cl)ccc23)ccc1O` [AQ, amodiaquine dihydrochloride dihydrate], the “ZIKV infection of hNPCs at day 6” value is “comparable to the level of infection in the DMSO control condition” and the “ZIKV infection rate of hNPCs at day 3” value is “undetectable levels”. The “elimination of ZIKV infection in previously infected hNPCs” value under setting [1] was “capable of eliminating ZIKV infection”.
As to `CN1CCC2=C[C@H](O)[C@H]3OC(=O)c4cc5c(cc4[C@H]3[C@@H]21)OCO5` [HH, hippeastrine hydrobromide], the “ZIKV infection of hNPCs at day 6” value is “remained undetectable” and the “ZIKV infection rate of hNPCs at day 3” value was “undetectable levels”. Further, under setting [1], the “IC50 for eliminating versus inhibiting ZIKV” value is “comparable IC50 values” and the “elimination of ZIKV infection in previously infected hNPCs” value was “capable of eliminating ZIKV infection”.
